This assay concerns the target hERG potassium channel (Homo sapiens, UniProt Q12809). Briefly: radio-ligand competitive binding assay.

Structures are written as SMILES.

Chain of hERG potassium channel (Q12809 whole entry): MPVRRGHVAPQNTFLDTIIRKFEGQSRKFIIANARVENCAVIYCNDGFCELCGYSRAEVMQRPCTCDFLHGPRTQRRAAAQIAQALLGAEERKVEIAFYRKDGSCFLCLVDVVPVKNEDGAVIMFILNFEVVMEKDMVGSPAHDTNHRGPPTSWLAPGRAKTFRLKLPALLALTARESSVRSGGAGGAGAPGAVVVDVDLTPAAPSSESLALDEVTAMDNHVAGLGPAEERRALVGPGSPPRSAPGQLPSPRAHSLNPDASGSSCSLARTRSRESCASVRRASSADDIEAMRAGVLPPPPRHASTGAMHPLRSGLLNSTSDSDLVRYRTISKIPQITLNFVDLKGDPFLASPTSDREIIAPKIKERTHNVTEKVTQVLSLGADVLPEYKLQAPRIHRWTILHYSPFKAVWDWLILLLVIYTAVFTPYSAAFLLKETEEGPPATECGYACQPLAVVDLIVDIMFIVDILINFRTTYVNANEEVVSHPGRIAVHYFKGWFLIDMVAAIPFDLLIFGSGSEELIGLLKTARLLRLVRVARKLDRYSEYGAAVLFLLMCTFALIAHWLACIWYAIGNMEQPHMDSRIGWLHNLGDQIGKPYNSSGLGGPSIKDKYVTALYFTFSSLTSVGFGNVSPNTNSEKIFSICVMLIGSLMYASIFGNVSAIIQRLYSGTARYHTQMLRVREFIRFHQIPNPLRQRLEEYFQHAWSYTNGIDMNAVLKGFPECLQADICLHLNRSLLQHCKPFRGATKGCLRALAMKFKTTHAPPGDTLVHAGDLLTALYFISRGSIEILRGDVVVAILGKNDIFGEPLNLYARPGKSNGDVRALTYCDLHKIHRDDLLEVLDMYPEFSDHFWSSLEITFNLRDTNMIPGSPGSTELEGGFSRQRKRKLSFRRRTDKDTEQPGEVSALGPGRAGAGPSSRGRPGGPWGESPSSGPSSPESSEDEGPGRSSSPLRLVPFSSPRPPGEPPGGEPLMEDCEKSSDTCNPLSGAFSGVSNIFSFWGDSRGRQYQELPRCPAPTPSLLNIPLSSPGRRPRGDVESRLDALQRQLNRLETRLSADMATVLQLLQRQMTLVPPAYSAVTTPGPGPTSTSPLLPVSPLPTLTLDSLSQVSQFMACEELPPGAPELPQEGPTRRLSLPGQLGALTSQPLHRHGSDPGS

For the compound `CN1CCN(CCCCN2C(=O)CN(/N=C/c3ccc(-c4ccc(Cl)cc4)o3)C2=O)CC1` [Azimilide], the IC50 (as a rule, the concentration needed to halve the response being measured) was found to be 1910 nM; the Ki – broadly, the dissociation constant of the complex between target and ligand, obtained from inhibition or displacement – came out at 954 nM.

For the origin of these results see paper PMC4658274 (The Analyst, 2015).
